Measured values reported in publication PMC6684685, “Evaluation of polydentate picolinic acid chelating ligands and an α-melanocyte-stimulating hormone derivative for targeted alpha therapy using ISOL-produced ^225Ac” (EJNMMI Radiopharmacy and Chemistry, 2019).
Like-named read-outs stand apart in the source and are kept apart here.

Assays:
[1] = La(III) exchange competition assay, 50-fold excess La; type: physicochemical; details: 50-fold excess La^III, ambient temperature
Experimental: (§1) Varying TLC/iTLC plate systems were selected for different ligands based from results of positive and negative radiolabeling controls: • Method A, for [^225Ac(octapa)]^− and [^225Ac(CHXoctapa)]^−: iTLC-SG plates (Agilent, 2 cm × 10 cm, baseline at 1.5 cm), developed using 10 mM NaOH/9% NaCl solution. Under these conditions free ^225Ac^III remains at the baseline (Rf = 0), while the ^225Ac-ligand complex migrates upwards with the solvent (Rf > 0); or • Method B, for [^225Ac(bispa^2)]^+ and [^225Ac(macropa)]^+: aluminum-backed ultrapure silica gel 60 with 250 μm thickness TLC plates (Fisher, 2 cm × 10 cm, baseline at 1.5 cm), developed using 0.4 M sodium citrate (pH 4) with 10% methanol. Under these conditions free ^225Ac^III migrates with the solvent front (Rf = 1), while ^225Ac-ligand complex remains at the baseline (Rf = 0); (Comba et al. [2017]; Thiele et al. [2017]) or • Method C, for [^225Ac(DOTA)]^−: iTLC-SA plates (Agilent, 2 × 10 cm, baseline at 1.5 cm) and developed using 50 mM EDTA buffer, pH 4. Under these conditions free ^225Ac^III migrates with the solvent front (Rf = 1), while ^225Ac-ligand complex remains at the baseline (Rf = 0); or • Method D, for human serum stability (below): aluminum-backed ultrapure silica gel 60 with 250 um thickness TLC plates (Fisher, 2 cm × 10 cm, baseline at 1.5 cm), developed in 50 mM EDTA, pH 5. Under these conditions, chelate-bound ^225Ac remains at the baseline (Rf = 0), and any ^225Ac^III that has de-complexed from the chelate will travel with the solvent front (Rf = 1). Method D was validated by incubating “free” ^225Ac^III with human serum under analogous conditions to ensure all the activity eluted with the solvent front (Rf ~ 1).
The stability of a radiometal-chelate complex is also often assessed by its ability to withstand transchelation in the presence of excess stable isotopes of the radiometal. Though this is an impossible experiment to perform with Ac since all Ac isotopes are unstable, lanthanum(III) has a similar ionic radius ([…], CN = 6–9) and charge to actinium(III) and is often considered a chemical surrogate to Ac^III. Using non-radioactive metal ions such as La^III as a competitor for ligand complexation is a straightforward method to probe the kinetic off-rate of a pre-formed Ac^III complex, since many ligands that bind Ac^III may also efficiently complex La^III. Herein, ^225Ac-complexes were prepared using the radiolabeling protocols described above and combined with La(NO3)3 (0.1 M, 50 M equivalents compared to the ligand) and allowed to react at ambient temperature. At varying time points (1 h – 7 d), aliquots of the competition reaction mixture (1–5 μL) were spotted on aluminum backed TLC plates and developed using the TLC methods described above.

[2] = Stability of 225Ac complexes in human serum (competition, TLC); type: in vitro ADME; details: ambient temperature
Experimental: as §1
To investigate the stabilities of the ^225Ac-complexes, a competition experiment was performed in the presence of excess human serum and the displacement of radioactivity from the chelator to serum proteins was tracked over the course of seven days. Endogenous metal-binding proteins in serum such as apo-transferrin and metallothionein can compete for and displace chelator-bound metal ions in vivo, preventing successful delivery of the radionuclide to the desired target. The ^225Ac-complexes were prepared using the radiolabeling protocols described above and added to an equal volume (170–180 μL) of human serum (stored at − 5 °C and thawed at ambient temperature). At varying time points (0.5 h to 7 days), small aliquots (1–5 μL) were spotted on iTLC plates using Methods B or D, described above. Representative TLC radio-chromatograms of a serum competition assay with ligand and control are presented in Additional file 1: Figures S2 and S3.

[3] = 50-fold excess La^III, ref Thiele et al. [2017], cited from earlier work
[4] = human serum, n = 1, ref Thiele et al. [2017], cited from earlier work

## O=C([O-])CN(Cc1cccc(C(=O)[O-])n1)C1CCCCC1N(CC(=O)[O-])Cc1cccc(C(=O)[O-])n1.[225Ac+3] (centres unmarked) [[^225Ac(CHXoctapa)]^−]
[1]; 5 h
  % Stable: 81.8 ± 4.3%
[1]; 1 d
  % Stable: 45.7 ± 3.1%
[1]; 2 d
  % Stable: 26.5 ± 8.9%
[1]; 3 d
  % Stable: 18.1 ± 0.4%
[1]; 6 d
  % Stable: 5.0 ± 0.4%
[1]; 7 d
  % Stable: 3.9 ± 0.6%
[2]; 1 h
  % Stable: 95.9 ± 1.0%
[2]; 4 h
  % Stable: 96.8 ± 1.7%
[2]; 1 d
  % Stable: 97.0 ± 0.9%
[2]; 2 d
  % Stable: 96.7 ± 1.6%
[2]; 3 d
  % Stable: 96.1 ± 1.5%
[2]; 4 d
  % Stable: 96.7 ± 1.2%
[2]; 7 d
  % Stable: 95.6 ± 1.6%

## O=C([O-])CN1CCN(CC(=O)[O-])CCN(CC(=O)[O-])CCN(CC(=O)[O-])CC1.[225Ac+3] [[^225Ac(DOTA)]^−, reference compound]
[1]; 1 h
  % Stable: 95.2 ± 3.3%
[1]; 5 h
  % Stable: 94.5 ± 3.5%
[1]; 1 d
  % Stable: 94.9 ± 2.9%
[1]; 2 d
  % Stable: 86.2 ± 3.1%
[1]; 7 d
  % Stable: 77.1 ± 3.6%
[2]; 0.5 h
  % Stable: 92.4 ± 4.0%
[2]; 1 h
  % Stable: 93.9 ± 4.5%
[2]; 4 h
  % Stable: 94.4 ± 3.7%
[2]; 1 d
  % Stable: 90.9 ± 5.6%
[2]; 2 d
  % Stable: 91.8 ± 5.6%
[2]; 4 d
  % Stable: 91.1 ± 6.1%
[2]; 7 d
  % Stable: 84.7 ± 8.1%

## O=C([O-])c1cccc(CN2CCOCCOCCN(Cc3cccc(C(=O)[O-])n3)CCOCCOCC2)n1.[225Ac+3] [[^225Ac(macropa)]^+]
[3]; 1 h
  % Stable: 95%
[3]; 1 d
  % Stable: 93%
[3]; 2 d
  % Stable: 92%
[3]; 3 d
  % Stable: 91%
[3]; 6 d
  % Stable: 93%
[3]; 7 d column (footnote: 8 d time point)
  % Stable: 91^b %
[3]; 7 d column (footnote: 8 d time point), listed as [^225Ac(macropa)]^−
  % Stable: 91%
[4]; 0.5 h
  % Stable: 96%
[4]; 1 h
  % Stable: 95%
[4]; 4 h
  % Stable: 93%
[4]; 1 d
  % Stable: 90%
[4]; 2 d
  % Stable: 93%
[4]; 3 d
  % Stable: 90%
[4]; 7 d
  % Stable: 90%

## O=C([O-])CN(CCN(CC(=O)[O-])Cc1cccc(C(=O)[O-])n1)Cc1cccc(C(=O)[O-])n1.[225Ac+3] [[^225Ac(octapa)]^−]
[1]; 1 h
  % Stable: 78.9 ± 2.9%
[1]; 5 h
  % Stable: 42.7 ± 0.3%
[1]; 1 d
  % Stable: 4.7 ± 1.5%
[1]; 2 d
  % Stable: 6.1 ± 2.6%
[2]; 1 h
  % Stable: 97.9 ± 0.9%
[2]; 4 h
  % Stable: 96.9 ± 1.5%
[2]; 1 d
  % Stable: 94.9 ± 1.2%
[2]; 2 d
  % Stable: 96.1 ± 1.0%
[2]; 3 d
  % Stable: 94.9 ± 1.1%
[2]; 4 d
  % Stable: 95.9 ± 1.9%
[2]; 7 d
  % Stable: 92.9 ± 1.0%

## O=C([O-])c1cccc(CN(CCN(Cc2cccc(C(=O)[O-])n2)CP(=O)([O-])[O-])CP(=O)([O-])[O-])n1.[225Ac+3] [[^225Ac(phospa)]^3−]
[1]; 5 h
  % Stable: 0%
[2]; 1 h
  % Stable: 81.6 ± 1.1%
[2]; 1 d
  % Stable: 81.5 ± 0.2%
[2]; 3 d
  % Stable: 80.2 ± 1.1%
[2]; 4 d
  % Stable: 76.2 ± 0.1%
[2]; 7 d
  % Stable: 77.1 ± 6.4%
